Measured values: PubChem BioAssay AID1259407 (Chemical Carcinogenesis Research Information System (CCRIS), 2018)
Activity calls are given as the source filed them. How the calls were made is not given here.

Tested on: CCRIS mutagenicity, Ames/micronucleus/aberration tests
Assay: CCRIS mutagenicity studies
[1] = Test System: AMES SALMONELLA TYPHIMURIUM, Strain/Indicator: TA98, Metabolic Activation: NONE, Method: PREINCUBATION
[2] = Test System: AMES SALMONELLA TYPHIMURIUM, Strain/Indicator: TA98, Metabolic Activation: NONE, Method: STANDARD PLATE
[3] = Test System: AMES SALMONELLA TYPHIMURIUM, Strain/Indicator: TA100, Metabolic Activation: NONE, Method: PREINCUBATION
[4] = Test System: AMES SALMONELLA TYPHIMURIUM, Strain/Indicator: TA100, Metabolic Activation: NONE, Method: STANDARD PLATE
[5] = Test System: AMES SALMONELLA TYPHIMURIUM, Strain/Indicator: TA100, Metabolic Activation: RAT, LIVER, S-9, AROCLOR 1254, Method: PREINCUBATION
[6] = Test System: AMES SALMONELLA TYPHIMURIUM, Strain/Indicator: TA98, Metabolic Activation: RAT, LIVER, S-9, AROCLOR 1254, Method: STANDARD PLATE

Which mutagenic call (Test System: AMES SALMONELLA TYPHIMURIUM, Strain/Indicator: TA98, Metabolic Activation: NONE, Method: SUSPENSION/PLATE) does the source give for `Cc1ccc(N=O)cc1[N+](=O)[O-]` here?
Its mutagenic call is “inactive; negative”.

What about the mutagenic call (Test System: AMES SALMONELLA TYPHIMURIUM, Strain/Indicator: TA98, Metabolic Activation: RAT, LIVER, S-9, PHENOBARBITAL AND 5,6-BENZOFLAVONE, Method: SUSPENSION/PLATE) of the same compound?
The mutagenic call was “inactive; negative”.

What about the mutagenic call (Test System: AMES SALMONELLA TYPHIMURIUM, Strain/Indicator: TA100, Metabolic Activation: NONE, Method: SUSPENSION/PLATE) of the same compound?
Its mutagenic call is “inactive; negative”.

And the mutagenic call (Test System: AMES SALMONELLA TYPHIMURIUM, Strain/Indicator: TA100, Metabolic Activation: RAT, LIVER, S-9, PHENOBARBITAL AND 5,6-BENZOFLAVONE, Method: SUSPENSION/PLATE)?
Its mutagenic call is “inactive; negative”.

With `OCc1ccco1` as the compound, how does the mutagenic call (Test System: AMES SALMONELLA TYPHIMURIUM, Strain/Indicator: TA98, Metabolic Activation: HAMSTER LIVER S-9, AROCLOR 1254 (10%), Method: PREINCUBATION) read?
The mutagenic call was “inactive; negative”.

What about the mutagenic call [1] of the same compound?
The mutagenic call was “inactive; negative”.

And the mutagenic call [2]?
Its mutagenic call is “inactive; negative”.

What about the mutagenic call (Test System: AMES SALMONELLA TYPHIMURIUM, Strain/Indicator: TA98, Metabolic Activation: RAT LIVER S-9, AROCLOR 1254 (10%), Method: PREINCUBATION) of the same compound?
The mutagenic call was “inactive; negative”.

And the mutagenic call (Test System: AMES SALMONELLA TYPHIMURIUM, Strain/Indicator: TA98, Metabolic Activation: RAT, LIVER, S-9, AROCLOR 1254, Method: PREINCUBATION)?
Its mutagenic call is “inactive; negative”.

What about the mutagenic call (Test System: AMES SALMONELLA TYPHIMURIUM, Strain/Indicator: TA98, Metabolic Activation: S-9, Method: STANDARD PLATE) of the same compound?
The mutagenic call was “inactive; negative”.

And the mutagenic call (Test System: AMES SALMONELLA TYPHIMURIUM, Strain/Indicator: TA100, Metabolic Activation: HAMSTER LIVER S-9, AROCLOR 1254 (10%), Method: PREINCUBATION)?
The mutagenic call was “inactive; negative”.

What about the mutagenic call [3] of the same compound?
The mutagenic call was “inactive; negative”.

What about the mutagenic call [4] of the same compound?
Its mutagenic call is “inactive; negative”.

What about the mutagenic call (Test System: AMES SALMONELLA TYPHIMURIUM, Strain/Indicator: TA100, Metabolic Activation: RAT LIVER S-9, AROCLOR 1254 (10%), Method: PREINCUBATION) of the same compound?
Its mutagenic call is “inactive; negative”.

And the mutagenic call [5]?
Its mutagenic call is “inactive; negative”.

And the mutagenic call (Test System: AMES SALMONELLA TYPHIMURIUM, Strain/Indicator: TA100, Metabolic Activation: S-9, Method: STANDARD PLATE)?
The mutagenic call was “inactive; negative”.

What about the mutagenic call (Test System: AMES SALMONELLA TYPHIMURIUM, Strain/Indicator: TA102, Metabolic Activation: NONE, Method: PREINCUBATION) of the same compound?
Its mutagenic call is “inactive; negative”.

What about the mutagenic call (Test System: AMES SALMONELLA TYPHIMURIUM, Strain/Indicator: TA102, Metabolic Activation: RAT, LIVER, S-9, AROCLOR 1254, Method: PREINCUBATION) of the same compound?
The mutagenic call was “inactive; negative”.

And the mutagenic call (Test System: AMES SALMONELLA TYPHIMURIUM, Strain/Indicator: TA1535, Metabolic Activation: HAMSTER LIVER S-9, AROCLOR 1254 (10%), Method: PREINCUBATION)?
Its mutagenic call is “inactive; negative”.

What about the mutagenic call (Test System: AMES SALMONELLA TYPHIMURIUM, Strain/Indicator: TA1535, Metabolic Activation: NONE, Method: PREINCUBATION) of the same compound?
The mutagenic call was “inactive; negative”.

What about the mutagenic call (Test System: AMES SALMONELLA TYPHIMURIUM, Strain/Indicator: TA1535, Metabolic Activation: RAT LIVER S-9, AROCLOR 1254 (10%), Method: PREINCUBATION) of the same compound?
Its mutagenic call is “inactive; negative”.

What about the mutagenic call (Test System: AMES SALMONELLA TYPHIMURIUM, Strain/Indicator: TA1537, Metabolic Activation: HAMSTER LIVER S-9, AROCLOR 1254 (10%), Method: PREINCUBATION) of the same compound?
Its mutagenic call is “inactive; negative”.

What about the mutagenic call (Test System: AMES SALMONELLA TYPHIMURIUM, Strain/Indicator: TA1537, Metabolic Activation: NONE, Method: PREINCUBATION) of the same compound?
Its mutagenic call is “inactive; negative”.

And the mutagenic call (Test System: AMES SALMONELLA TYPHIMURIUM, Strain/Indicator: TA1537, Metabolic Activation: RAT LIVER S-9, AROCLOR 1254 (10%), Method: PREINCUBATION)?
The mutagenic call was “inactive; negative”.

For `COc1cc(NC(C)=O)ccc1NC(C)=O`, which mutagenic call [2] is on record?
Its mutagenic call is “inactive; negative”.

What about the mutagenic call [6] of the same compound?
The mutagenic call was “inactive; negative”.

What does the source list for `CCc1c2ccccc2cc2c1ccc1ccccc12`?
mutagenic call (Test System: AMES SALMONELLA TYPHIMURIUM, Strain/Indicator: TA98, Method: STANDARD PLATE): active; positive; mutagenic call (Test System: AMES SALMONELLA TYPHIMURIUM, Strain/Indicator: TA100, Metabolic Activation: RAT, LIVER, S-9, PHENOBARBITAL, Method: STANDARD PLATE): inactive; negative; mutagenic call (Test System: AMES SALMONELLA TYPHIMURIUM, Strain/Indicator: TA100, Method: STANDARD PLATE): active; positive

Which mutagenic call [1] does the source give for `O=C(OCc1cccc([N+](=O)[O-])c1)c1ccccc1` here?
The mutagenic call was “inactive; negative”.

What about the mutagenic call [3] of the same compound?
The mutagenic call was “inactive; negative”.

What about the mutagenic call [5] of the same compound?
Its mutagenic call is “inactive; negative”.

Which results are given for `COc1cccc(C=O)c1O`?
mutagenic call [2]: inactive; negative; mutagenic call [4]: inactive; negative; mutagenic call (Test System: E. COLI, Strain/Indicator: CM561 LEXA, Metabolic Activation: NONE, Method: STANDARD PLATE): inactive; negative; mutagenic call (Test System: E. COLI, Strain/Indicator: CM611 UVRA/LEXA, Metabolic Activation: NONE, Method: STANDARD PLATE): inactive; negative; mutagenic call (Test System: E. COLI, Strain/Indicator: WP2 UVRA, Metabolic Activation: NONE, Method: STANDARD PLATE): inactive; negative

`O=C(O)COc1ccc2ccccc2c1` was tested. Which mutagenic call (Test System: AMES SALMONELLA TYPHIMURIUM, Strain/Indicator: TA97, Metabolic Activation: NONE, Method: STANDARD PLATE) did it give?
The mutagenic call was “inactive; negative”.

And the mutagenic call (Test System: AMES SALMONELLA TYPHIMURIUM, Strain/Indicator: TA97, Metabolic Activation: RAT, LIVER, S-9, AROCLOR 1254, Method: STANDARD PLATE)?
Its mutagenic call is “inactive; negative”.

What about the mutagenic call [2] of the same compound?
The mutagenic call was “inactive; negative”.

What about the mutagenic call [6] of the same compound?
The mutagenic call was “inactive; negative”.

What about the mutagenic call [4] of the same compound?
Its mutagenic call is “inactive; negative”.

What about the mutagenic call (Test System: AMES SALMONELLA TYPHIMURIUM, Strain/Indicator: TA100, Metabolic Activation: RAT, LIVER, S-9, AROCLOR 1254, Method: STANDARD PLATE) of the same compound?
Its mutagenic call is “inactive; negative”.

And the mutagenic call (Test System: AMES SALMONELLA TYPHIMURIUM, Strain/Indicator: TA1535, Metabolic Activation: NONE, Method: STANDARD PLATE)?
The mutagenic call was “inactive; negative”.

And the mutagenic call (Test System: AMES SALMONELLA TYPHIMURIUM, Strain/Indicator: TA1535, Metabolic Activation: RAT, LIVER, S-9, AROCLOR 1254, Method: STANDARD PLATE)?
Its mutagenic call is “inactive; negative”.

`Cc1cccc(C)c1[N+](=O)[O-]` was tested. Which mutagenic call [1] did it give?
Its mutagenic call is “inactive; negative”.

What about the mutagenic call (Test System: AMES SALMONELLA TYPHIMURIUM, Strain/Indicator: TA98, Metabolic Activation: RAT, LIVER, S-9, KANECHLOR 500, Method: PREINCUBATION) of the same compound?
The mutagenic call was “inactive; negative”.

What about the mutagenic call [3] of the same compound?
Its mutagenic call is “inactive; negative”.

What about the mutagenic call (Test System: AMES SALMONELLA TYPHIMURIUM, Strain/Indicator: TA100, Metabolic Activation: RAT, LIVER, S-9, KANECHLOR 500, Method: PREINCUBATION) of the same compound?
Its mutagenic call is “inactive; negative”.
